Columns and labels:
[1] = test system: Cyp1a2; test: Western blot protein level after 7 days gavage: CYP1A2; type: in vivo, mice; design: key to CYP1A2 Protein expression: ↑: up-regulation; ↓: down-regulation; –: no change
Description: Mice were randomly divided into four groups, with eight animals in each group. The mice received oral pretreatment with N-hydap for 7 days at doses of 2, 5, and 10 mg/kg/day, which were considered as the low dose, medium dose, and high dose, respectively. Correspondingly, the control group received PBS. On the 8th day, the liver and kidneys were removed, and organs from eight mice per group were combined to prepare MLMs and MKMs using the detailed procedures above. Subsequently, we determined the activity of CYP and UGT enzymes by specific substrate metabolized with MLMs (0.5 mg/mL) and MKMs (0.2 mg/mL) in vitro. Specifically, the following selective substrates were used for the respective enzymes: PH (1 μM) for CYP1A2, DIC (1 μM) for CYP2C9, MP (90 μM) for CYP2C19, DM (1 μM) for CYP2D6, CZX (10 μM) for CYP2E1, Tes (1 μM) for CYP3A4, SN38 (1 μM) for UGT1A1, CACD (100 μM) for UGT1A3, Sero (20 μM) for UGT1A6, and Prop (1 μM) for UGT1A9. All substrates were dissolved in methanol or DMSO. The incubation procedure was carried out as mentioned above, and the reaction was terminated with VER (20 ng/mL) in ESI+ mode and CLP (200 ng/mL) in ESI− mode. In the ex vivo experiments, the activity of enzymes was measured by quantifying the production of various metabolites (nM/mg protein/min). The metabolites and their corresponding enzymes are as follows: APAP from PH, 4-OH-DIC from DIC, 4-OH-MP from MP, DXO from DM, 6-OH-CZX from CZX, 6-OH-Tes from Tes, SN38-G from SN38, CACD-G from CACD, Sero-G from Sero, Prop-G from Prop. The measurements were performed using multiple reaction monitoring (MRM) transitions, which are specific mass spectrometry transitions used for quantification. […]
After 7 days of N-hydap gavage, the liver and kidney tissues were lysed using RIPA buffer supplemented with a 1% protease inhibitor cocktail. […] Western blot signals were detected using an ECL chemiluminescence detection agent. The relative intensity of each protein band was scanned and quantified using Image J software.

[2] = test system: RLMs; test: Kinetics of N-hydap glucuronidation in RLMs; type: in vitro ADME, rat; settings: RLM
Description: (§1) In this study, the rats were executed by drawing blood from the abdominal aorta and mice were sacrificed with cervical dislocation before the liver and kidneys were excised. The liver and kidneys were removed, and washed with chilled cleansing solution (contains 8 mM KH2PO4, 5.6 mM EDTA·K2·2H2O, 1 mM DTT and 229.6 μM PMSF), homogenized in a tissue homogenate buffer with a pH of 7.4, (consisting of […], 8 mM K2HPO4, 250 mM sucrose, 1 mM EDTA·K2·2H2O and 229.6 μM PMSF). Subsequently, the homogenate was centrifuged at 10,400 rpm at 4 °C for 15 min, and the supernatant was then centrifuged at 35,000 rpm at 4 °C for 60 min. A 250 mM sucrose buffer was added to the pellet to reconstitute and the resuspension was stored at − 80 °C until use. Microsome protein concentrations were measured by Omni-Easy™ Instant BCA Protein Assay Kit.
(§2) Various microsomes including HLMs, HKMs, HIMs, RLMs, RKMs, MLMs and MKMs were involved in CYP and UGT reactions of N-hydap. […]
(§3) The substrate concentrations used for HLMs were 0.05, 0.5, 2, 2.5, 5, 10, 25, 50, and 100 μM. […] The rates of N-hydap-G by enzymes were expressed as nmol/mg/min, representing the amount of metabolites formed per minute per milligram of protein. Kinetic parameters were determined by analyzing the Eadie–Hofstee plots. […]

[3] = test system: MLMs; test: Kinetics of N-hydap glucuronidation in MLMs; type: in vitro ADME, mouse; settings: MLM
Description: as §1, §2, §3

How did the “CYP1A2 Protein expression” value ([1]; Kidney) turn out when `CC1CCC2C(C=CC(C)C2C(=O)c2c(O)c(C3(O)CCC(O)C4OC43)cn(O)c2=O)C1` (centres unmarked) [N-hydap, N-Hydroxyapiosporamide] was run?
Its value is “↑”.

What about the “up-regulation of protein levels of CYP1A2” value ([1]; mice, 10 mg/kg p.o. 7 days, kidney) of the same molecule?
Its value is 117%.

What about the “decrease of protein levels of CYP1A2” value ([1]; mice, p.o. 7 days, liver) of the same molecule?
Its value is 68%.

What about the Km [2] of the same molecule?
The Km was 357 nM.

What about the Km [3] of the same molecule?
The Km was 263 µM.

— PMC11109052, “Metabolism characterization and toxicity of N-hydap, a marine candidate drug for lung cancer therapy by LC–MS method” (Natural Products and Bioprospecting, 2024)
